Results reported in paper PMC7561186, “Rational design of balanced dual-targeting antibiotics with limited resistance” (PLoS Biology, 2020).
≈ marks a conversion by molar mass, not a printed value. Where two headings read alike, the source gives them in different places.

System: S. aureus clinical isolates
Assay: microbe, parasite or virus in culture
Assay type: cell-based

Work on `Cc1[nH]c(C(=O)Nc2nc3c(OCc4ccccc4)cc(C(=O)O)cc3s2)c(Cl)c1Cl` [ULD2] yielded an MIC (S. aureus ATCC 29213, MSSA / VSSA, test date 2018-10-25 (three repeat lines)) of 0.5 µg/mL (≈ 1.05 µM), an MIC (Staphylococcus aureus, ATCC 29213 / MSSA, S. aureus ATCC 29213, MSSA / VSSA, test date 2018-10-25 (three repeat lines), read-out: MIC) of 0.25 µg/mL (≈ 0.525 µM) and an MIC (Staphylococcus aureus, ATCC 29213 / MSSA, S. aureus ATCC 29213, MSSA / VSSA, test date 2018-11-07, read-out: MIC) of 0.25 µg/mL (≈ 0.525 µM). For the same compound, the MIC (Staphylococcus aureus, MRSA / NRS 3 / VISA, S. aureus IHMA 1308243, NRS3, MRSA / VISA, read-out: MIC) was 0.5 µg/mL (≈ 1.05 µM), the MIC (Staphylococcus aureus, MRSA / NRS 4 / VISA, S. aureus IHMA 649380, NRS4, MRSA / VISA, read-out: MIC) was 0.25 µg/mL (≈ 0.525 µM) and the MIC (Staphylococcus aureus, MRSA / NRS 18 / VISA, S. aureus IHMA 649386, NRS18, MRSA / VISA, read-out: MIC) was 0.5 µg/mL (≈ 1.05 µM). For the same compound, the MIC (Staphylococcus aureus, MRSA / NRS 19 / VISA, S. aureus IHMA 649387, NRS19, MRSA / VISA, read-out: MIC) was 0.25 µg/mL (≈ 0.525 µM), the MIC (Staphylococcus aureus, MRSA / NRS 21 / VISA, S. aureus IHMA 649388, NRS21, MRSA / VISA, read-out: MIC) was 0.25 µg/mL (≈ 0.525 µM) and the MIC (Staphylococcus aureus, MRSA / NRS 22 / USA600 / VISA, S. aureus IHMA 649389, NRS22, MRSA / VISA, USA600, read-out: MIC) was 0.5 µg/mL (≈ 1.05 µM). It also gave an MIC (Staphylococcus aureus, MRSA / NRS 23 / VISA, S. aureus IHMA 649390, NRS23, MRSA / VISA, read-out: MIC) of 0.5 µg/mL (≈ 1.05 µM), an MIC (Staphylococcus aureus, MRSA / NRS 24 / VISA, S. aureus IHMA 649391, NRS24, MRSA / VISA, read-out: MIC) of 0.25 µg/mL (≈ 0.525 µM) and an MIC (Staphylococcus aureus, MRSA / NRS 26, S. aureus IHMA 649392, NRS26, MRSA / VSSA, read-out: MIC) of 0.5 µg/mL (≈ 1.05 µM). The MIC (Staphylococcus aureus, MRSA / NRS 27 / VISA, S. aureus IHMA 1308248, NRS27, MRSA / VISA, read-out: MIC) was 0.5 µg/mL (≈ 1.05 µM), the MIC (Staphylococcus aureus, MRSA / NRS 29 / VISA, S. aureus IHMA 1308250, NRS29, MRSA / VISA, read-out: MIC) was 0.25 µg/mL (≈ 0.525 µM) and the MIC (Staphylococcus aureus, MRSA / NRS 37 / VISA, S. aureus IHMA 1308251, NRS37, MRSA / VISA, read-out: MIC) was 0.5 µg/mL (≈ 1.05 µM). For the same compound, the MIC (Staphylococcus aureus, MRSA / NRS 54, S. aureus IHMA 1308253, NRS54, MRSA / VSSA* (*Expected VAN intermediate, confirmed VAN susceptible twice), test date 2018-11-07, read-out: MIC) was 0.12 µg/mL (≈ 0.252 µM), the MIC (Staphylococcus aureus, MRSA / NRS 56 / VISA, S. aureus IHMA 1308254, NRS56, MRSA / VISA, read-out: MIC) was 0.25 µg/mL (≈ 0.525 µM) and the MIC (Staphylococcus aureus, MRSA / USA100 / VRSA, S. aureus IHMA 672230, VRS1, MRSA / VRSA, USA100, read-out: MIC) was 0.25 µg/mL (≈ 0.525 µM). For the same compound, the MIC (Staphylococcus aureus, MRSA / USA100 / VRSA, S. aureus IHMA 672231, VRS2, MRSA / VRSA, USA100, read-out: MIC) was 0.25 µg/mL (≈ 0.525 µM), the MIC (Staphylococcus aureus, MRSA / USA100 / VRSA, S. aureus IHMA 672234, VRS4, MRSA / VRSA, USA100, read-out: MIC) was 0.25 µg/mL (≈ 0.525 µM) and the MIC (Staphylococcus aureus, MRSA / USA100 / VRSA, S. aureus IHMA 672235, VRS5, MRSA / VRSA, USA100, read-out: MIC) was 0.25 µg/mL (≈ 0.525 µM). For the same compound, the MIC (Staphylococcus aureus, MRSA / USA100 / VRSA, S. aureus IHMA 672237, VRS7, MRSA / VRSA, USA100, read-out: MIC) was 0.25 µg/mL (≈ 0.525 µM), the MIC (Staphylococcus aureus, MRSA / USA100 / VRSA, S. aureus IHMA 672238, VRS8, MRSA / VRSA, USA100, read-out: MIC) was 0.25 µg/mL (≈ 0.525 µM) and the MIC (Staphylococcus aureus, MRSA / USA100 / VRSA, S. aureus IHMA 672239, VRS9, MRSA / VRSA, USA100, read-out: MIC) was 0.25 µg/mL (≈ 0.525 µM). The MIC (Staphylococcus aureus, MRSA / USA100 / VRSA, S. aureus IHMA 1308256, VRS10, MRSA / VRSA, USA100, read-out: MIC) was 0.5 µg/mL (≈ 1.05 µM), the MIC (Staphylococcus aureus, MRSA / USA100 / VRSA, S. aureus IHMA 1308258, VRS11b, MRSA / VRSA, USA100, read-out: MIC) was 0.25 µg/mL (≈ 0.525 µM) and the MIC (Staphylococcus aureus, MRSA / USA800 / VRSA, S. aureus IHMA 672233, VRS3b, MRSA / VRSA, USA800, read-out: MIC) was 0.06 µg/mL (≈ 0.126 µM). The MIC (Staphylococcus aureus, MRSA / VISA / VRSA, all isolates of the panel (MRSA, VISA, VRSA), read-out: MIC against all tested S. aureus clinical isolates) was ≤ 1 µg/mL, the MIC (Staphylococcus aureus, MRSA, S. aureus IHMA 1569509, MRSA / VSSA, read-out: MIC) was 0.12 µg/mL (≈ 0.252 µM) and the MIC (Staphylococcus aureus, MRSA, S. aureus IHMA 1575268, MRSA / VSSA, read-out: MIC) was 0.25 µg/mL (≈ 0.525 µM). The MIC (Staphylococcus aureus, MRSA, S. aureus IHMA 1575629, MRSA / VSSA, read-out: MIC) was 0.25 µg/mL (≈ 0.525 µM), the MIC (Staphylococcus aureus, MRSA, S. aureus IHMA 1577820, MRSA / VSSA, read-out: MIC) was 0.5 µg/mL (≈ 1.05 µM) and the MIC (Staphylococcus aureus, MRSA, S. aureus IHMA 1580300, MRSA / VSSA, read-out: MIC) was 0.12 µg/mL (≈ 0.252 µM). The MIC (Staphylococcus aureus, MRSA, S. aureus IHMA 1580940, MRSA / VSSA, read-out: MIC) was 0.5 µg/mL (≈ 1.05 µM), the MIC (Staphylococcus aureus, MRSA, S. aureus IHMA 1582100, MRSA / VSSA, read-out: MIC) was 0.25 µg/mL (≈ 0.525 µM) and the MIC (Staphylococcus aureus, MRSA, S. aureus IHMA 1583795, MRSA / VSSA, read-out: MIC) was 1 µg/mL (≈ 2.1 µM). For the same compound, the MIC (Staphylococcus aureus, MRSA, S. aureus IHMA 1584223, MRSA / VSSA, read-out: MIC) was 0.5 µg/mL (≈ 1.05 µM), the MIC (Staphylococcus aureus, MRSA, S. aureus IHMA 1585316, MRSA / VSSA, read-out: MIC) was 0.25 µg/mL (≈ 0.525 µM) and the MIC (Staphylococcus aureus, MRSA, S. aureus IHMA 1586780, MRSA / VSSA, read-out: MIC) was 0.25 µg/mL (≈ 0.525 µM). The MIC (Staphylococcus aureus, MRSA, S. aureus IHMA 1587322, MRSA / VSSA, read-out: MIC) was 0.25 µg/mL (≈ 0.525 µM), the MIC (Staphylococcus aureus, MRSA, S. aureus IHMA 1588127, MRSA / VSSA, read-out: MIC) was 0.25 µg/mL (≈ 0.525 µM) and the MIC (Staphylococcus aureus, MRSA, S. aureus IHMA 1591462, MRSA / VSSA, read-out: MIC) was 0.12 µg/mL (≈ 0.252 µM). The MIC (Staphylococcus aureus, MRSA, S. aureus IHMA 1592755, MRSA / VSSA, read-out: MIC) was 0.5 µg/mL (≈ 1.05 µM), the MIC (Staphylococcus aureus, MRSA, S. aureus IHMA 1592776, MRSA / VSSA, read-out: MIC) was 0.25 µg/mL (≈ 0.525 µM) and the MIC (Staphylococcus aureus, MRSA, S. aureus IHMA 1597106, MRSA / VSSA, read-out: MIC) was 0.5 µg/mL (≈ 1.05 µM). It also gave an MIC (Staphylococcus aureus, MRSA, S. aureus IHMA 1602095, MRSA / VSSA, read-out: MIC) of 0.25 µg/mL (≈ 0.525 µM), an MIC (Staphylococcus aureus, MRSA, S. aureus IHMA 1611170, MRSA / VSSA, read-out: MIC) of 0.25 µg/mL (≈ 0.525 µM) and an MIC (Staphylococcus aureus, MRSA, S. aureus IHMA 1611612, MRSA / VSSA, read-out: MIC) of 0.25 µg/mL (≈ 0.525 µM). The MIC (Staphylococcus aureus, MRSA, S. aureus IHMA 1612228, MRSA / VSSA, read-out: MIC) was 0.25 µg/mL (≈ 0.525 µM), the MIC (Staphylococcus aureus, MRSA, S. aureus IHMA 1620441, MRSA / VSSA, read-out: MIC) was 0.25 µg/mL (≈ 0.525 µM) and the MIC (Staphylococcus aureus, MRSA, S. aureus IHMA 1621638, MRSA / VSSA, read-out: MIC) was 0.5 µg/mL (≈ 1.05 µM).
